The values that follow come from patent publication US8158628B2, “Sulfonylated 1,2,3,4-tetrahydropyrrolo[1,2-a]pyrazine compounds and their use as pharmaceuticals” (Gruenenthal GmbH, priority 2009, dated 2012).

One may read the inhibition as the change of the read-out against control, counted positive when it falls.

This assay concerns the target T1, B1R of the rat (Rattus norvegicus, UniProt P97583).
T1 construct: expressed in transfected cells; host or cells: CHO K1 cells (Chinese hamster ovary), stably transfected
T1 sequence (P97583 1-337): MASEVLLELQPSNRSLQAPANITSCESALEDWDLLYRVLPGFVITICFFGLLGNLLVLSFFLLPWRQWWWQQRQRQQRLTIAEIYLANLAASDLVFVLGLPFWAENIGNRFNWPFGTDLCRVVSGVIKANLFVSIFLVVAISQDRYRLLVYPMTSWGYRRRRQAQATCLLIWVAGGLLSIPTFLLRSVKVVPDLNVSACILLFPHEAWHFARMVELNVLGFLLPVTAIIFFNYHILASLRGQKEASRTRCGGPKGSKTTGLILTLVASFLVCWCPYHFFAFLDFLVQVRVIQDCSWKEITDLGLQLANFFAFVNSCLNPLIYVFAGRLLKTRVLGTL
Nature of the assay: FLIPR Ca2+ functional assay, B1R antagonism, rat B1R in CHO K1 cells. The class given is cell-based. The following applies: test substance 10 μM; rB1R CHO K1 cells; agonist Des-Arg9 bradykinin at EC80; % of maximum achievable inhibition. Put shortly: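 Stably transfected CHO K1 cells loaded with Fluo-4; Ca2+ fluorescence read on FLIPR (ex 488/em 540 nm). Compound preincubated 10-20 min, then agonist at EC80: Lys-Des-Arg9 bradykinin (human) or Des-Arg9 bradykinin (rat). % inhibition vs maximal inhibition; IC50 from concentration series, n=2-3, N>=2.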
Consider `COc1ccc(CN2CCN(C(=O)CC3c4cccn4CCN3S(=O)(=O)c3ccccc3)CC2)cc1` (stereo not drawn) [Example 233, 2-[2-(Benzenesulfonyl)-1,2,3,4-tetrahydro-pyrrolo[1,2-a]pyrazin-1-yl]-1-[4-[(4-methoxyphenyl)-methyl]-piperazin-1-yl]-ethanone], for which the inhibition at 10 µM was 20.6%.

For `O=C(CC1c2cccn2CCN1S(=O)(=O)c1ccccc1)N1CCN(Cc2ccccc2F)CC1` (stereo not drawn) [Example 234, 2-[2-(Benzenesulfonyl)-1,2,3,4-tetrahydro-pyrrolo[1,2-a]pyrazin-1-yl]-1-[4-[(2-fluorophenyl)-methyl]-piperazin-1-yl]-ethanone], the inhibition at 10 µM was determined as 17.3%. Consider `O=C(CC1c2cccn2CCN1S(=O)(=O)c1ccccc1)NCC1CCCN(Cc2ccccc2)C1` (stereo not drawn) [Example 235, 2-[2-(Benzenesulfonyl)-1,2,3,4-tetrahydro-pyrrolo[1,2-a]pyrazin-1-yl]-N-[(1-benzyl-piperidin-3-yl)-methyl]-acetamide], for which the inhibition at 10 µM is -14%. In the case of `Cc1cc(C)c(CN2CCN(C(=O)CC3c4cccn4CCN3S(=O)(=O)c3cccc(C(F)(F)F)c3)CC2)c(C)c1` (stereo not drawn) [Example 236, 2-[2-[[3-(Trifluoromethyl)phenyl]sulfonyl]-1,2,3,4-tetrahydro-pyrrolo[1,2-a]pyrazin-1-yl]-1-[4-[(2,4,6-trimethyl-phenyl)-methyl]-piperazin-1-yl]-ethanone] it was 9.23%; in that of `COc1ccc(N2CCN(C(=O)CC3c4cccn4CCN3S(=O)(=O)c3ccc(C(F)(F)F)cc3Cl)CC2)cc1` (stereo not drawn) [Example 237, 2-[2-[[2-Chloro-4-(trifluoromethyl)-phenyl]sulfonyl]-1,2,3,4-tetrahydro-pyrrolo[1,2-a]pyrazin-1-yl]-1-[4-(4-methoxyphenyl)-piperazin-1-yl]-ethanone], 9.45%. In the case of `COc1cc(C)c(S(=O)(=O)N2CCn3cccc3C2CC(=O)N2CCN(c3ccc(Cl)c(Cl)c3)CC2)c(C)c1` (stereo not drawn) [Example 238, 1-[4-(3,4-Dichlorophenyl)-piperazin-1-yl]-2-[2-[(4-methoxy-2,6-dimethyl-phenyl)sulfonyl]-1,2,3,4-tetrahydro-pyrrolo[1,2-a]pyrazin-1-yl]-ethanone], the inhibition at 10 µM was 17.6%. As for `COc1cc(C)c(S(=O)(=O)N2CCn3cccc3C2CC(=O)N2CCN(Cc3c(C)cc(C)cc3C)CC2)c(C)c1` (stereo not drawn) [Example 239, 2-[2-[(4-Methoxy-2,6-dimethyl-phenyl)sulfonyl]-1,2,3,4-tetrahydro-pyrrolo[1,2-a]pyrazin-1-yl]-1-[4-[(2,4,6-trimethyl-phenyl)-methyl]-piperazin-1-yl]-ethanone], the figure is -8.74%; as for `COc1cc(C)c(S(=O)(=O)N2CCn3cccc3C2CC(=O)N2CCN(Cc3ccc(Cl)cc3)CC2)c(C)c1` (stereo not drawn) [Example 240, 1-[4-[(4-Chlorophenyl)-methyl]-piperazin-1-yl]-2-[2-[(4-methoxy-2,6-dimethyl-phenyl)sulfonyl]-1,2,3,4-tetrahydro-pyrrolo[1,2-a]pyrazin-1-yl]-ethanone], 55.9%. In the case of `COc1cc(C)c(S(=O)(=O)N2CCn3cccc3C2CC(=O)N2CCN(Cc3ccc(C)cc3)CC2)c(C)c1` (stereo not drawn) [Example 241, 2-[2-[(4-Methoxy-2,6-dimethyl-phenyl)sulfonyl]-1,2,3,4-tetrahydro-pyrrolo[1,2-a]pyrazin-1-yl]-1-[4-(p-tolyl-methyl)-piperazin-1-yl]-ethanone] it was 46.8%; in that of `COc1ccc(CN2CCN(C(=O)CC3c4cccn4CCN3S(=O)(=O)c3c(C)cc(OC)cc3C)CC2)cc1` (stereo not drawn) [Example 242, 2-[2-[(4-Methoxy-2,6-dimethyl-phenyl)sulfonyl]-1,2,3,4-tetrahydro-pyrrolo[1,2-a]pyrazin-1-yl]-1-[4-[(4-methoxyphenyl)-methyl]-piperazin-1-yl]-ethanone], 8.4%.

For the compound `COc1cc(C)c(S(=O)(=O)N2CCn3cccc3C2CC(=O)N2CCN(Cc3ccccc3F)CC2)c(C)c1` (stereo not drawn) [Example 243, 1-[4-[(2-Fluorophenyl)-methyl]-piperazin-1-yl]-2-[2-[(4-methoxy-2,6-dimethyl-phenyl)sulfonyl]-1,2,3,4-tetrahydro-pyrrolo[1,2-a]pyrazin-1-yl]-ethanone], the inhibition at 10 µM is 29.4%. As for `COc1cc(C)c(S(=O)(=O)N2CCn3cccc3C2CC(=O)N2CCCCC2Cc2ccccn2)c(C)c1` (stereo not drawn) [Example 244, 2-[2-[(4-Methoxy-2,6-dimethyl-phenyl)sulfonyl]-1,2,3,4-tetrahydro-pyrrolo[1,2-a]pyrazin-1-yl]-1-[2-(pyridin-2-yl-methyl)-piperidin-1-yl]-ethanone], the inhibition at 10 µM was -37.6%. On to `COc1cc(C)c(S(=O)(=O)N2CCn3cccc3C2CC(=O)N2CCCCC2Cc2ccncc2)c(C)c1` (stereo not drawn) [Example 245, 2-[2-[(4-Methoxy-2,6-dimethyl-phenyl)sulfonyl]-1,2,3,4-tetrahydro-pyrrolo[1,2-a]pyrazin-1-yl]-1-[2-(pyridin-4-yl-methyl)-piperidin-1-yl]-ethanone], for which the inhibition at 10 µM is -21.5%. For `COc1cc(C)c(S(=O)(=O)N2CCn3cccc3C2CC(=O)N2CCN(Cc3ccc4c(c3)OCO4)CC2)c(C)c1` (stereo not drawn) [Example 246, 1-[4-(1,3-Benzodioxol-5-yl-methyl)-piperazin-1-yl]-2-[2-[(4-methoxy-2,6-dimethyl-phenyl)sulfonyl]-1,2,3,4-tetrahydro-pyrrolo[1,2-a]pyrazin-1-yl]-ethanone], the inhibition at 10 µM amounted to 6.85%. Take `COc1cc(C)c(S(=O)(=O)N2CCn3cccc3C2CC(=O)N2CCN(CCC#N)CC2)c(C)c1` (stereo not drawn) [Example 247, 3-[4-[2-[2-[(4-Methoxy-2,6-dimethyl-phenyl)sulfonyl]-1,2,3,4-tetrahydro-pyrrolo[1,2-a]pyrazin-1-yl]-acetyl]-piperazin-1-yl]-propionitrile]: the inhibition at 10 µM was -27.4%.

`COc1cc(C)c(S(=O)(=O)N2CCn3cccc3C2CC(=O)NCC2CCCN(Cc3ccccc3)C2)c(C)c1` (stereo not drawn) [Example 248, N-[(1-Benzyl-piperidin-3-yl)-methyl]-2-[2-[(4-methoxy-2,6-dimethyl-phenyl)sulfonyl]-1,2,3,4-tetrahydro-pyrrolo[1,2-a]pyrazin-1-yl]-acetamide]: the inhibition at 10 µM was 84%.

Take `Cc1cccc(Cl)c1S(=O)(=O)N1CCn2cccc2C1CC(=O)N1CCN(Cc2ccc(Cl)cc2)CC1` (stereo not drawn) [Example 249, 2-[2-[(2-Chloro-6-methyl-phenyl)sulfonyl]-1,2,3,4-tetrahydro-pyrrolo[1,2-a]pyrazin-1-yl]-1-[4-[(4-chlorophenyl)-methyl]-piperazin-1-yl]-ethanone]: the inhibition at 10 µM was -12.6%.

In the case of `Cc1cccc(Cl)c1S(=O)(=O)N1CCn2cccc2C1CC(=O)N1CCCCC1Cc1ccccn1` (stereo not drawn) [Example 250, 2-[2-[(2-Chloro-6-methyl-phenyl)sulfonyl]-1,2,3,4-tetrahydro-pyrrolo[1,2-a]pyrazin-1-yl]-1-[2-(pyridin-2-yl-methyl)-piperidin-1-yl]-ethanone], the inhibition at 10 µM was -38%. As for `Cc1cccc(Cl)c1S(=O)(=O)N1CCn2cccc2C1CC(=O)N1CCCCC1Cc1ccncc1` (stereo not drawn) [Example 251, 2-[2-[(2-Chloro-6-methyl-phenyl)sulfonyl]-1,2,3,4-tetrahydro-pyrrolo[1,2-a]pyrazin-1-yl]-1-[2-(pyridin-4-yl-methyl)-piperidin-1-yl]-ethanone], the figure is -37.1%; as for `Cc1cccc(Cl)c1S(=O)(=O)N1CCn2cccc2C1CC(=O)N1CCN(Cc2ccc3c(c2)OCO3)CC1` (stereo not drawn) [Example 252, 1-[4-(1,3-Benzodioxol-5-yl-methyl)-piperazin-1-yl]-2-[2-[(2-chloro-6-methyl-phenyl)sulfonyl]-1,2,3,4-tetrahydro-pyrrolo[1,2-a]pyrazin-1-yl]-ethanone], -10.5%. In the case of `Cc1cccc(Cl)c1S(=O)(=O)N1CCn2cccc2C1CC(=O)N1CCN(CCC#N)CC1` (stereo not drawn) [Example 253, 3-[4-[2-[2-[(2-Chloro-6-methyl-phenyl)sulfonyl]-1,2,3,4-tetrahydro-pyrrolo[1,2-a]pyrazin-1-yl]-acetyl]-piperazin-1-yl]-propionitrile] it was -39.1%; in that of `O=C(CC1c2cccn2CCN1S(=O)(=O)c1ccc(C(F)(F)F)cc1Cl)NCC1CCCN(Cc2ccccc2)C1` (stereo not drawn) [Example 254, N-[(1-Benzyl-piperidin-3-yl)-methyl]-2-[2-[[2-chloro-4-(trifluoromethyl)-phenyl]sulfonyl]-1,2,3,4-tetrahydro-pyrrolo[1,2-a]pyrazin-1-yl]-acetamide], 8.85%. As for `COc1cc(C)c(S(=O)(=O)N2CCn3cccc3C2CC(=O)N2CCCCCC2c2ccc(N(C)C)cc2)c(C)c1` (stereo not drawn) [Example 255, 1-[2-(4-Dimethylaminophenyl)-azepan-1-yl]-2-[2-[(4-methoxy-2,6-dimethyl-phenyl)sulfonyl]-1,2,3,4-tetrahydro-pyrrolo[1,2-a]pyrazin-1-yl]-ethanone], the figure is -7.23%; as for `COc1cc(C)c(S(=O)(=O)N2CCn3cccc3C2CC(=O)N(C)C(CN2CCOCC2)c2ccccc2)c(C)c1` (stereo not drawn) [Example 256, 2-[2-[(4-Methoxy-2,6-dimethyl-phenyl)sulfonyl]-1,2,3,4-tetrahydro-pyrrolo[1,2-a]pyrazin-1-yl]-N-methyl-N-(2-morpholin-4-yl-1-phenyl-ethyl)-acetamide], 5.54%.
